Data reported in PubChem BioAssay AID248 (DTP/NCI, 2004).
“And” between values parts separate entries of the source, which are not always exact repeats. Equal values may be shown once. Toxic doses and inconclusive results are not listed. Cut-off read from the data, not from the text of the source: active = T/C of 150% or more; inactive = T/C below 125%.

Tested on: L1210 leukemia ip in BDF1 mice, survival T/C
Experiment: NCI In Vivo Anticancer Drug Screen. Data for tumor model L1210 Leukemia (intraperitoneal) in B6D2F1 (BDF1) mice
Details: endpoint: mean survival time, higher = longer survival
Method in brief: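 Ratio derived from survival: compound-dosed mice over vehicle-dosed mice, all bearing a transplantable tumor.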

[1] = dose: 100.0 mg/kg/injection, schedule: Q04DX002 (ip), vehicle: saline with Tween-80
[2] = dose: 200.0 mg/kg/injection, schedule: Q04DX002 (ip), vehicle: saline with Tween-80
[3] = dose: 400.0 mg/kg/injection, schedule: Q04DX002 (ip), vehicle: saline with Tween-80
[4] = dose: 100.0 mg/kg/injection, schedule: Q04DX002 (ip), vehicle: gum acacia
[5] = dose: 100.0 mg/kg/injection, schedule: Q01DX009 (ip), vehicle: Klucel (hydroxypropylcellulose) (HPC)
[6] = dose: 200.0 mg/kg/injection, schedule: Q01DX009 (ip), vehicle: Klucel (hydroxypropylcellulose) (HPC)
[7] = dose: 400.0 mg/kg/injection, schedule: Q01DX009 (ip), vehicle: Klucel (hydroxypropylcellulose) (HPC)
[8] = dose: 100.0 mg/kg/injection, schedule: Q04DX002 (ip), vehicle: Klucel (hydroxypropylcellulose) (HPC)
[9] = dose: 200.0 mg/kg/injection, schedule: Q04DX002 (ip), vehicle: Klucel (hydroxypropylcellulose) (HPC)
[10] = dose: 200.0 mg/kg/injection, schedule: Q04DX003 (ip), vehicle: Klucel (hydroxypropylcellulose) (HPC)
[11] = dose: 400.0 mg/kg/injection, schedule: Q01DX001 (ip), vehicle: Klucel (hydroxypropylcellulose) (HPC)
[12] = dose: 400.0 mg/kg/injection, schedule: Q04DX002 (ip), vehicle: Klucel (hydroxypropylcellulose) (HPC)
[13] = dose: 400.0 mg/kg/injection, schedule: Q04DX003 (ip), vehicle: Klucel (hydroxypropylcellulose) (HPC)
[14] = dose: 25.0 mg/kg/injection, schedule: Q01DX009 (ip), vehicle: Klucel (hydroxypropylcellulose) (HPC)
[15] = dose: 50.0 mg/kg/injection, schedule: Q01DX009 (ip), vehicle: Klucel (hydroxypropylcellulose) (HPC)

Measured: T/C

N#CCCN(Cc1cccnc1)CN1C(=O)c2ccccc2C1=O
inactive: [1] 91 % of control | [2] 97 % of control | [3] 102 % of control

CC(C)C(=O)c1ccc([N+](=O)[O-])o1
inactive: dose: 100.0 mg/kg/injection, schedule: Q01DX009 (ip), vehicle: saline with Tween-80 94 % of control | dose: 100.0 mg/kg/injection, schedule: Q04DX003 (ip), vehicle: saline with Tween-80 99 % of control | dose: 200.0 mg/kg/injection, schedule: Q01DX009 (ip), vehicle: saline with Tween-80 96 % of control | dose: 200.0 mg/kg/injection, schedule: Q04DX003 (ip), vehicle: saline with Tween-80 99 % of control | dose: 400.0 mg/kg/injection, schedule: Q04DX003 (ip), vehicle: saline with Tween-80 88 % of control

Nc1c(-c2ccccc2)nnn1-c1cccc(Cl)c1
inactive: dose: 25.0 mg/kg/injection, schedule: Q04DX002 (ip), vehicle: gum acacia 95 % of control | dose: 50.0 mg/kg/injection, schedule: Q04DX002 (ip), vehicle: gum acacia 95 % of control | [4] 96 % of control and 98 % of control

N#CCc1ccccc1N(C(=O)CCl)C(=O)CCl
inactive: dose: 100.0 mg/kg/injection, schedule: Q01DX001 (ip), vehicle: saline sonified 98 % of control | dose: 200.0 mg/kg/injection, schedule: Q01DX001 (ip), vehicle: saline sonified 103 % of control | dose: 400.0 mg/kg/injection, schedule: Q01DX001 (ip), vehicle: saline sonified 103 % of control

CN(C)c1ccc(C=C2/C(=N\O)c3ccccc3/C2=N/O)cc1
inactive: [5] 98 % of control | [6] 96 % of control | [7] 94 % of control

CN(C)c1ncnc2c1ncn2C1OC(CO)C2NP(=O)(N(CCCl)CCCl)OC21 (stereo not drawn)
inactive: dose: 75.0 mg/kg/injection, schedule: Q01DX001 (ip), vehicle: saline 103 % of control | dose: 150.0 mg/kg/injection, schedule: Q01DX001 (ip), vehicle: saline 119 % of control

O=C(Nc1ccc([N+](=O)[O-])cc1)C(c1ccccc1)c1ccccc1
inactive: [4] 100 % of control | dose: 200.0 mg/kg/injection, schedule: Q04DX002 (ip), vehicle: gum acacia 100 % of control | dose: 400.0 mg/kg/injection, schedule: Q04DX002 (ip), vehicle: gum acacia 93 % of control

COc1cc2c(c(OC)c1OC)-c1ccc(=O)c(N)cc1C(NC(C)=O)CC2 (stereo not drawn)
inactive: dose: 1.8 mg/kg/injection, schedule: Q01DX Z (ip), vehicle: carboxymethylcellulose (CMC) 97 % of control | dose: 3.7 mg/kg/injection, schedule: Q01DX Z (ip), vehicle: carboxymethylcellulose (CMC) 101 % of control | dose: 7.5 mg/kg/injection, schedule: Q01DX Z (ip), vehicle: carboxymethylcellulose (CMC) 105 % of control | dose: 15.0 mg/kg/injection, schedule: Q01DX Z (ip), vehicle: carboxymethylcellulose (CMC) 105 % of control | dose: 30.0 mg/kg/injection, schedule: Q01DX Z (ip), vehicle: carboxymethylcellulose (CMC) 110 % of control and 112 % of control | dose: 60.0 mg/kg/injection, schedule: Q01DX Z (ip), vehicle: carboxymethylcellulose (CMC) 114 % of control and 122 % of control | dose: 240.0 mg/kg/injection, schedule: Q01DX Z (ip), vehicle: carboxymethylcellulose (CMC) 121 % of control

CC(Oc1nc2c(c(=O)n(C)c(=O)n2C)n1C)C1CCCCC1 (stereo not drawn)
inactive: dose: 50.0 mg/kg/injection, schedule: Q01DX001 (ip), vehicle: other 95 % of control | dose: 100.0 mg/kg/injection, schedule: Q01DX001 (ip), vehicle: other 98 % of control | dose: 200.0 mg/kg/injection, schedule: Q01DX001 (ip), vehicle: other 93 % of control

CCOc1ccccc1-n1c(-c2ccc([N+](=O)[O-])cc2)csc1=NC(=O)c1cccc([N+](=O)[O-])c1
inactive: dose: 100.0 mg/kg/injection, schedule: Q01DX001 (ip), vehicle: Klucel (hydroxypropylcellulose) (HPC) 101 % of control | [5] 96 % of control and 100 % of control and 106 % of control | [8] 94 % of control and 98 % of control | dose: 100.0 mg/kg/injection, schedule: Q04DX003 (ip), vehicle: Klucel (hydroxypropylcellulose) (HPC) 101 % of control | dose: 200.0 mg/kg/injection, schedule: Q01DX001 (ip), vehicle: Klucel (hydroxypropylcellulose) (HPC) 101 % of control | [6] 93 % of control (2×) and 95 % of control | [9] 97 % of control and 98 % of control | [10] 95 % of control | [11] 98 % of control | [7] 95 % of control and 97 % of control (2×) | [12] 96 % of control and 97 % of control | [13] 93 % of control

CCC12CCC(=O)NC1Cc1[nH]c3c(OC)cccc3c1C2 (stereo not drawn)
inactive: dose: 100.0 mg/kg/injection, schedule: Q01DX009 (ip), vehicle: saline sonified 93 % of control | dose: 200.0 mg/kg/injection, schedule: Q01DX009 (ip), vehicle: saline sonified 91 % of control | dose: 400.0 mg/kg/injection, schedule: Q01DX009 (ip), vehicle: saline sonified 91 % of control

O=NN(C(=O)c1ccccc1)C(c1ccccc1)c1ccc(Cl)cc1 (stereo not drawn)
inactive: dose: 45.0 mg/kg/injection, schedule: Q04DX002 (ip), vehicle: Klucel (hydroxypropylcellulose) (HPC) 91 % of control | dose: 90.0 mg/kg/injection, schedule: Q04DX002 (ip), vehicle: Klucel (hydroxypropylcellulose) (HPC) 91 % of control | dose: 180.0 mg/kg/injection, schedule: Q04DX002 (ip), vehicle: Klucel (hydroxypropylcellulose) (HPC) 97 % of control

CCCCCCCCCCCCCCSCCSCCSCCCCCCCCCCCCCC
inactive: dose: 12.5 mg/kg/injection, schedule: Q01DX001 (ip), vehicle: Klucel (hydroxypropylcellulose) (HPC) 103 % of control | dose: 25.0 mg/kg/injection, schedule: Q01DX001 (ip), vehicle: Klucel (hydroxypropylcellulose) (HPC) 97 % of control | dose: 50.0 mg/kg/injection, schedule: Q01DX001 (ip), vehicle: Klucel (hydroxypropylcellulose) (HPC) 89 % of control | [11] 87 % of control

N#Cc1nc2c(n(O)c1=N)CCC/C2=C\c1ccc(Cl)c(Cl)c1
inactive: [8] 99 % of control | [9] 89 % of control | [12] 92 % of control

CC(O)CN1C(=O)c2cccc3cc([N+](=O)[O-])cc(c23)C1=O (stereo not drawn)
inactive: [1] 95 % of control | [2] 103 % of control | [3] 98 % of control

CCOC(=O)/C=C(\C)Nc1ccc(NC(C)=O)cc1
inactive: dose: 50.0 mg/kg/injection, schedule: Q01DX009 (ip), vehicle: water 107 % of control | dose: 100.0 mg/kg/injection, schedule: Q01DX009 (ip), vehicle: water 121 % of control | dose: 100.0 mg/kg/injection, schedule: Q04DX003 (ip), vehicle: water 96 % of control | dose: 200.0 mg/kg/injection, schedule: Q01DX009 (ip), vehicle: water 98 % of control | dose: 200.0 mg/kg/injection, schedule: Q04DX003 (ip), vehicle: water 96 % of control | dose: 400.0 mg/kg/injection, schedule: Q01DX009 (ip), vehicle: water 100 % of control | dose: 400.0 mg/kg/injection, schedule: Q04DX003 (ip), vehicle: water 101 % of control

Oc1ccc(OCc2ccccc2)cc1
inactive: [14] 110 % of control | [15] 88 % of control | [5] 100 % of control | dose: 100.0 mg/kg/injection, schedule: Q04DX003 (ip), vehicle: other 103 % of control | dose: 200.0 mg/kg/injection, schedule: Q04DX003 (ip), vehicle: other 102 % of control | dose: 400.0 mg/kg/injection, schedule: Q04DX003 (ip), vehicle: other 93 % of control

CNc1ccc2cc(Br)ccc2c1
inactive: dose: 100.0 mg/kg/injection, schedule: Q01DX005 (ip), vehicle: Klucel (hydroxypropylcellulose) (HPC) 107 % of control | dose: 200.0 mg/kg/injection, schedule: Q01DX005 (ip), vehicle: Klucel (hydroxypropylcellulose) (HPC) 107 % of control | [10] 95 % of control | dose: 400.0 mg/kg/injection, schedule: Q01DX005 (ip), vehicle: Klucel (hydroxypropylcellulose) (HPC) 95 % of control | [13] 101 % of control

COc1ccc(OC)c(NC(=O)Sc2ccccc2O)c1
inactive: [14] 100 % of control | [15] 96 % of control | [5] 99 % of control and 89 % of control

O=C(O)c1cc(Cl)nc(Cl)c1
inactive: [5] 97 % of control | [6] 88 % of control
